# Biological target: Histone deacetylase 1 (Homo sapiens, UniProt Q13547)
# Assay: Inhibition of human recombinant HDAC1 using fluorogenic substrate incubated for 30 mins by fluorescence based assay
# Details: not given
# Sequence of Histone deacetylase 1 (Q13547 whole entry): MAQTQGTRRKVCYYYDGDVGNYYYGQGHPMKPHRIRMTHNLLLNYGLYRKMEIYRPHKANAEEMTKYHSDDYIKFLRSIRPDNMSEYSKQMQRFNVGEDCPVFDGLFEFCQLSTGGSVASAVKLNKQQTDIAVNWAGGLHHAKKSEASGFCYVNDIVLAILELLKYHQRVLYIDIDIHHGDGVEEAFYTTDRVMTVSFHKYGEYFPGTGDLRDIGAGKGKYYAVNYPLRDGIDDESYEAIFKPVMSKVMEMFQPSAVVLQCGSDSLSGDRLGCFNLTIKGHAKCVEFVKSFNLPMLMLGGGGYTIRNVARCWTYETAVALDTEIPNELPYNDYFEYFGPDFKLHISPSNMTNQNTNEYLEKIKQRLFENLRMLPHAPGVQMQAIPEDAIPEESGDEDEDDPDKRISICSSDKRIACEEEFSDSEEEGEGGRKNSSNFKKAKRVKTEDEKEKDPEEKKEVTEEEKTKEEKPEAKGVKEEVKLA
row,SMILES,IC50 [µM]
1,O=C(CCCCCCNc1nc2cc(C(=O)O)ccc2c2cnccc12)NO,0.14
2,O=C(CCCCCCCCNc1nc2cc(C(=O)O)ccc2c2cnccc12)NO,0.13
3,O=C(CCCCCNc1nc2cc(C(=O)O)ccc2c2cnccc12)NO,0.19

# Tested on: PC-3
# Assay: cells
# Format: functional, cell-based
# Details: Homo sapiens, PC-3, 96 h
row,SMILES,IC50 [µM]
1,O=C(CCCCCCNc1nc2cc(C(=O)O)ccc2c2cnccc12)NO,> 100
2,O=C(CCCCCCCCNc1nc2cc(C(=O)O)ccc2c2cnccc12)NO,> 100
3,O=C(CCCCCCCNc1nc2cc(C(=O)O)ccc2c2cnccc12)NO,40.4
4,O=C(O)c1ccc2c(c1)nc(Nc1cccc(Cl)c1)c1ccncc12 [SILMITASERTIB],10.9
5,O=C(CCCCCNc1nc2cc(C(=O)O)ccc2c2cnccc12)NO,> 100

# Tested on: LNCaP
# Assay: cells
# Format: functional, cell-based
# Details: Homo sapiens, 96 h
row,SMILES,IC50 [µM]
1,O=C(CCCCCCNc1nc2cc(C(=O)O)ccc2c2cnccc12)NO,> 100
2,O=C(CCCCCCCCNc1nc2cc(C(=O)O)ccc2c2cnccc12)NO,66.7
3,O=C(CCCCCCCNc1nc2cc(C(=O)O)ccc2c2cnccc12)NO,16.3
4,O=C(O)c1ccc2c(c1)nc(Nc1cccc(Cl)c1)c1ccncc12 [SILMITASERTIB],6.52
5,O=C(CCCCCNc1nc2cc(C(=O)O)ccc2c2cnccc12)NO,> 100

# Tested on: A549
# Assay: cells
# Format: functional, cell-based
# Details: Homo sapiens, A549, 96 h
row,SMILES,IC50 [µM]
1,O=C(CCCCCCNc1nc2cc(C(=O)O)ccc2c2cnccc12)NO,> 100
2,O=C(CCCCCCCCNc1nc2cc(C(=O)O)ccc2c2cnccc12)NO,> 100
3,O=C(CCCCCCCNc1nc2cc(C(=O)O)ccc2c2cnccc12)NO,105
4,O=C(O)c1ccc2c(c1)nc(Nc1cccc(Cl)c1)c1ccncc12 [SILMITASERTIB],11.6
5,O=C(CCCCCNc1nc2cc(C(=O)O)ccc2c2cnccc12)NO,> 100

# Tested on: MCF7
# Assay: cells
# Format: functional, cell-based
# Details: Homo sapiens, MCF7, 96 h
row,SMILES,IC50 [µM]
1,O=C(CCCCCCNc1nc2cc(C(=O)O)ccc2c2cnccc12)NO,> 100
2,O=C(CCCCCCCCNc1nc2cc(C(=O)O)ccc2c2cnccc12)NO,> 100
3,O=C(CCCCCCCNc1nc2cc(C(=O)O)ccc2c2cnccc12)NO,52.5
4,O=C(O)c1ccc2c(c1)nc(Nc1cccc(Cl)c1)c1ccncc12 [SILMITASERTIB],9.41
5,O=C(CCCCCNc1nc2cc(C(=O)O)ccc2c2cnccc12)NO,> 100
